From patent US20240262835A1, “PRMT5 INHIBITING COMPOUNDS AND USES THEREOF” (ANTENGENE DISCOVERY LIMITED, priority 2023, published 2024)

What was measured:
[1] = Hepatic metabolic stability (HMS) assay, mouse hepatocytes; conditions: mouse, cryopreserved hepatocytes
Protocol: 1) 10 mM test compounds were provided.
(§1) 2) 30 mM positive control stock solutions: Dissolved accurate amount of positive control compounds in dimethyl sulfoxide (DMSO).
(§2) 3) 1000× Stock Solution: Diluted 10 mM test compounds and 30 mM positive control compounds to 1 mM and 3 mM with DMSO in 96-well plates.
(§3) 4) 100× Dosing Solution: Diluted 1 mM test compounds and 3 mM positive control compounds to 100 μM and 300 μM dosing solutions with ACN.
(§4) 5) Preparation of 0.5×10^6/mL cells suspension: cryopreserved cells were thawed, isolated and suspended in Incubation Medium, then diluted with pre-warmed Incubation Medium to 0.5×10^6 cells/mL.
(§5) 6) Add 198 μL of pre-warmed cell suspensions in 96-well plates.
(§6) 7) Preparation of Quenching Plate: Transfer 125 μL of stop solution in a set of pre-labeled 96-well plates.
(§7) 8) Spike 2 μL dosing solution to each well of 96-well plates in duplicate.
(§8) 9) For TO Samples, mix to achieve a homogenous suspension for about 1 min, then immediately transfer 25 μL of each sample into well containing 125 μL of ice-cold stop solution followed by mixing.
(§9) 10) Incubate all plates at 37° C. in a 95% humidified incubator at 5% CO2 to start the reactions with constant shaking.
(§10) 11) At 15, 30, 60 and 90 min, mix samples and then transfer 25 μL of each sample at each time point to well containing 125 μL of ice-cold stop solution followed by mixing.
(§11) 12) Medium Control (MC) sample plates (labeled as TO-MC and T90-MC) are prepared in the same way as cell incubation except that medium was used instead of cell suspension.
(§12) 13) At each corresponding time point, stop the reactions by removing the plates from incubator and mixing with 125 μL of ice-cold stop solution.
(§13) 14) Vortex the plates immediately on a plate shaker at 600 rpm for 10 minutes. Then, centrifuge all sample plates at 3220×g for 20 min at 4° C.
(§14) 15) After centrifugation, 80 μL/well of supernatant in the sample plates are transferred to another set of pre-labeled 96-well plates which containing 240 μL of ultra pure water according to the plate map.
(§15) 16) Analytical plates are sealed and store at 4° C. until LC-MS/MS analysis.
(§16) The remaining percents of test articles after incubation were calculated by the follow equations:
(§17) Use the following equation of first order kinetics to calculate T1/2 and CLint:

[2] = tested on: cryopreserved hepatocytes
Protocol: 1) 10 mM test compounds were provided.
as §1, §2, §3, §4, §5, §6, §7, §8, §9, §10, §11, §12, §13, §14, §15, §16, §17

[3] = mouse, microsomes
CYP2C19 = CYP2C19 (Homo sapiens (Human), UniProt P33261); test: CYP isoforms inhibitory assay in human liver microsome, CYP2C19; assay type: in vitro ADME; conditions: substrate s-mephenytoin
Protocol: CYP isoforms inhibitory activities of test compounds were measured in human liver microsome.
Preparation details of these substrates are given in below table. The substrate stock solution was stored in a −20° C. freezer. Prior to use, the substrate stock solution was removed from the freezer and allowed to rise to room temperature. Then the substrate stock solution was mixed on a whirly mixer for 30 seconds.
HLMs were stored in a −80° C. freezer. Prior to use, the pooled HLM was removed from the freezer and allowed to thaw in a 37° C. water bath and then stored on wet ice.
The positive control inhibitors and their concentrations used by each isozyme are summarized below.
All samples were incubated in a 37° C. water bath, with three parallels for each concentration of the test compound and two parallels for each concentration of the positive control inhibitor. 100 μL of microsome working solution was taken and added 2 μL of the test product or positive inhibitor working solution. 2 μL solvents was added to the solvent control, and put in a water bath to pre-incubate for 10 min. After pre-incubation, 98 μL of NADPH regeneration solution was added to all samples to start the reaction. Then the mixture was put back in the water bath and incubated for a certain period of time.
The reaction was quenched by 200 μL stop solution. […]
IC50 values were determined using 3- or 4-parameter logistic equation.

[4] = tested on: cryopreserved hepatocytes; remark: listed apart in the source
Protocol: 1) 10 mM test compounds were provided.
as §1, §2, §3, §4, §5, §6, §7, §8, §9, §10, §11, §12, §13, §14, §15, §16, §17

[5] = Liver microsome metabolic stability (LMS) assay, human

Sequence of CYP2C19 (P33261 whole entry, canonical isoform): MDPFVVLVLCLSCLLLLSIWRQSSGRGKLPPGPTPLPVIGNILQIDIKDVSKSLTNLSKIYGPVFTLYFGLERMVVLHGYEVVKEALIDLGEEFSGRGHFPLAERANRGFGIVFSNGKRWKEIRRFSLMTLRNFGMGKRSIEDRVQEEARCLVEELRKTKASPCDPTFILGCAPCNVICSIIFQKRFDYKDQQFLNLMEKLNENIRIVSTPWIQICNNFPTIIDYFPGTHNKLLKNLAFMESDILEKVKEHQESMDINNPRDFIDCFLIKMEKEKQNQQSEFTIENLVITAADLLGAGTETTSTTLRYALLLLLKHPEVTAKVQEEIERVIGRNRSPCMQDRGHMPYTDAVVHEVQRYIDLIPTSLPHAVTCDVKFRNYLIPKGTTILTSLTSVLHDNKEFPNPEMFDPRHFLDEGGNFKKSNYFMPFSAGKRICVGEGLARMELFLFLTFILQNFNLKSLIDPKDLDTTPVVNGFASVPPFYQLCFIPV

SMILES: CN(C(=O)c1ccc2nc(N)c3cncn3c2c1)[C@@H]1COc2cc(C(F)(F)F)ccc21 [Compound 12]
- half-life at 1 μM [1]: 1.86 h

SMILES: CN(C(=O)c1ccc2nc(N)c3cncn3c2c1)C1COc2cc(C(F)(F)F)ccc21 (stereo not drawn) [Compound 17]
- CLint (liver) D [2]: 46.9 mL/min/kg
- CLint (hep) D ([2]; dog): 6.8 μL/min/10^6
- T1/2 (hepatocytes) D ([2]; dog): 3.39 h
- T1/2 of LMS, M [3]: 1.61 h
- IC50 (CYP2C19): 15.1 µM
- CLint (liver) C [4]: 62.0 mL/min/kg
- CLint (hep) C ([4]; cynomolgus monkey): 17.2 μL/min/10^6
- T1/2 (hepatocytes) C ([4]; cynomolgus monkey): 1.34 h

SMILES: CN(C(=O)c1cc2c(cn1)nc(N)c1cncn12)C1CC(F)(F)c2cc(C(F)(F)F)ccc21 (stereo not drawn) [Compound 24]
- CLint (mic) H ([5]; human liver microsome): <9.6 µL/min/mg
- T1/2 of LMS, H ([5]; human liver microsome 0.5 mg protein/mL, 1 μM, NADPH): >2.42 h
- CLint (liver) H ([5]; human liver microsome, scaled to liver): <8.6 mL/min/kg
